# Calls of active or inactive are those of the source.
# Assays:
# HEK293 = test: inhibitors of LMP1-driven NF-kB reporter, dose response, cell-based, HEK293, luciferase, cherry-pick (AID 588343); assay type: functional; conditions: Homo sapiens
# [1] = target: Peroxisome proliferator-activated receptor gamma/Nuclear receptor coactivator 1 (Homo sapiens, UniProt P37231); test: (§1) TR-FRET dose response biochemical High Throughput Screening assay for agonists of the steroid receptor coactivator 1 (SRC-1) recruitment by the peroxisome proliferator-activated receptor gamma (PPAR gamma): non-selective agonists. [Related pubchem assays (depositor defined):AID1300, AID1808, AID504735, AID631]; assay type: protein assay
# [2] = target: Peroxisome proliferator-activated receptor gamma/Nuclear receptor coactivator 3 (Homo sapiens, UniProt P37231); test: as §1, with “3 (SRC-3)” for “1 (SRC-1)”, “assays: 1301 (Confirmation screen.), 1048 (Primary screen.)]” for “assays (depositor defined):AID1300, AID1808, AID504735, AID631]”; assay type: functional
# [3] = target: Peroxisome proliferator-activated receptor gamma/Nuclear receptor coactivator 2 (Homo sapiens, UniProt P37231); test: TR-FRET dose response biochemical High Throughput Screening assay for agonists of the steroid receptor coactivator 2 (SRC-2) recruitment by the peroxisome proliferator-activated receptor gamma (PPAR gamma): non-selective agonists. [Related pubchem assays: 1297, 1032 ]; assay type: functional
# [4] = cytotoxicity in HEK-293T cells, dose response, cytotoxicity control for BCR NF-kB inhibitor project, luminescence, B-cell screen hits (AID 489021); assay type: functional, cell-based;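 further: HEK-293T cells carrying an NF-kB luciferase reporter; cells exposed to compound for about 14 hours before viability readout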
# [5] = target: Dual specificity tyrosine-phosphorylation-regulated kinase 1A (Rattus norvegicus, UniProt Q63470); assay type: biochemical, Homo sapiens
# Cytochrome P450 2C19 = Cytochrome P450 2C19 (Homo sapiens, UniProt P33261); test: Cytochrome panel assay with activity outcomes. Panel member name: p450-cyp2c19 Compounds with AC50 equal or less than 10 uM are considered active; assay type: functional; conditions: read-out: AC50
# Cytochrome P450 3A4 = Cytochrome P450 3A4 (Homo sapiens, UniProt P08684);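 further: CYP3A4 tested as one member of a cytochrome P450 panel screen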
# Cytochrome P450 2C9 = Cytochrome P450 2C9 (Homo sapiens, UniProt P11712)
# Cytochrome P450 1A2 = target: T1, Cytochrome P450 1A2 (Homo sapiens, UniProt P05177);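 further: PubChem cytochrome P450 panel assay, CYP1A2 panel member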
# T1 sequence (P05177 whole entry): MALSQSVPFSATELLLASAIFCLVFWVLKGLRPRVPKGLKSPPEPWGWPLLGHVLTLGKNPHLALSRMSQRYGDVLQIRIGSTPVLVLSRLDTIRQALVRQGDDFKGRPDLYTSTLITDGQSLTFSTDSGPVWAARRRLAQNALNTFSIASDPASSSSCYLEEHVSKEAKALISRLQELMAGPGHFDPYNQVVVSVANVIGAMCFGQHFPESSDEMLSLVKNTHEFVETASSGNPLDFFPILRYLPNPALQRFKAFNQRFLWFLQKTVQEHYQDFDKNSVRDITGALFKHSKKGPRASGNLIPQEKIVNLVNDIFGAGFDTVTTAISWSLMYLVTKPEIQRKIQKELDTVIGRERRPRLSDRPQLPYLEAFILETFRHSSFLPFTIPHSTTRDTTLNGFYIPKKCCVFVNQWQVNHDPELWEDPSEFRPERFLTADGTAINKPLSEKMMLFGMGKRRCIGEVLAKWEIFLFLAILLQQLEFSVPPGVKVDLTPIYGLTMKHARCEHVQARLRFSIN
# [6] = NIH-3T3 fibroblast cytotoxicity, dose response, cytotoxicity control, cell-based, fluorescence, Alamar Blue, secondary assay (AID 2327); assay type: functional;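 further: NIH-3T3 mouse fibroblasts cultured with fluconazole at 8 µg/mL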
# [7] = C. albicans growth with fluconazole, confirmation, fluorescence, retest (AID 2467); assay type: functional, cell-based
# [8] = target: T2, Serine/threonine-protein phosphatase (Candida dubliniensis (strain CD36 / CBS 7987 / NCPF 3949 / NRRLY-17841) (Yeast), UniProt B9W6M3); test: calcineurin pathway inhibitors in yeast reporter, dose response, S. cerevisiae, CDRE-lacZ, luminescence, secondary (AID 2388); assay type: functional, cell-based;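 further: yeast reporter cells carrying a calcineurin-responsive lacZ construct stimulated with calcium chloride; luminescent beta-galactosidase reporter signal in whole cells rather than isolated phosphatase activity; potency for inhibition where a drop in reporter signal means calcineurin blockade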
# T2 sequence (B9W6M3 whole entry): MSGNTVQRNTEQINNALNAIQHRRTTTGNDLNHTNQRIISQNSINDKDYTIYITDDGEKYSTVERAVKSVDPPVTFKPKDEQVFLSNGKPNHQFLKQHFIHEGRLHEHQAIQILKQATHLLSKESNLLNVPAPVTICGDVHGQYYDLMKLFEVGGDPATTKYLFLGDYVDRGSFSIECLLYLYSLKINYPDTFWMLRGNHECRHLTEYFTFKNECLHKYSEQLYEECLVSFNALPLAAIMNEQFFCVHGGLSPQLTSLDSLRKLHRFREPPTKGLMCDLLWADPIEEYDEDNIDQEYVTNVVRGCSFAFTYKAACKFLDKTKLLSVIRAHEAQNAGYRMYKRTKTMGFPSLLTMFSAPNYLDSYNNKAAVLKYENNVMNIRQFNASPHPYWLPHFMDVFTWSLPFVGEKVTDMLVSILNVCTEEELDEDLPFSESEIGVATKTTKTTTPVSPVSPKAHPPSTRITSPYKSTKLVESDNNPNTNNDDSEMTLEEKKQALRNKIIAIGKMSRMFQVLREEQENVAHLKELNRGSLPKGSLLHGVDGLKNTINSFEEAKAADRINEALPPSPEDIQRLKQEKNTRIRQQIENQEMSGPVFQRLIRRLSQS
# [9] = target: ATP-dependent molecular chaperone HSP82 (Candida albicans (strain WO-1) (Yeast), UniProt C4YTQ8); test: loss of DOC-induced GRE-beta-galactosidase reporter signal, dose response, Hsp90 inhibitor project, S. cerevisiae, luminescence (AID 2400); assay type: functional, cell-based;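 further: beta-galactosidase luminescence from glucocorticoid response element reporter as proxy for Hsp90 function; inhibitor potency where signal loss means Hsp90 inhibition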
# [10] = target: T3, Calpain-2 catalytic subunit (Sus scrofa, UniProt P43367); test: pig calpain II inhibitor potency, dose response, biochemical, fluorogenic peptide substrate (AID 1420); assay type: functional
# T3 sequence (P43367 whole entry): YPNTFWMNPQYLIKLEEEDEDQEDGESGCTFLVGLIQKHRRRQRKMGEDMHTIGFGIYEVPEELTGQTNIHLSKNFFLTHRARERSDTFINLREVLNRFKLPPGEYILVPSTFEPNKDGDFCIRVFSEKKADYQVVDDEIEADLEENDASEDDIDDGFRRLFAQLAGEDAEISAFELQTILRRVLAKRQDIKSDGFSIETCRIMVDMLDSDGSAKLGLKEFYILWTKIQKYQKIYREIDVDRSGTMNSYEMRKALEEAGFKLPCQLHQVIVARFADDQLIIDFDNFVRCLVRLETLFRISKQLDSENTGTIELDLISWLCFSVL
# [11] = target: FAD-linked sulfhydryl oxidase ALR (Homo sapiens, UniProt P55789); test: inhibitors of human ALR sulfhydryl oxidase, dose response, biochemical, H2O2 detection, luminescence, cherry-pick (AID 493248)
# INS1 = test: beta cell apoptosis inhibitors, cytokine rescue, dose response, luminescence, retest (AID 449756); assay type: functional, cell-based; conditions: Rattus norvegicus;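 further: cell death triggered by IL-1 beta plus TNF-alpha plus IFN-gamma mixture; protective hits raise ATP signal compared with cytokine alone wells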
# Protein Wnt-3a = Protein Wnt-3a (Mus musculus, UniProt P27467); test: Wnt3a-driven reporter signaling inhibition, dose response, selectivity assay for Gli-SUFU antagonist project, Wnt-LIGHT cells, luminescence (AID 651570); assay type: functional; conditions: read-out: IC50_Mean;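 further: Wnt-LIGHT reporter cells stimulated with conditioned medium from Wnt3a-producing cells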
# [12] = target: T4, COUP transcription factor 2 (Homo sapiens, UniProt P24468); test: Luminescence-based cell-based high throughput dose response assay to identify inhibitors of COUP-TFII (NR2F2).; assay type: functional;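 further: HEK293 cells transiently cotransfected with COUP-TFII expression vector and reporter; luciferase reporter luminescence driven by COUP-TFII from the pX2-168 reporter plasmid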
# T4 sequence (P24468 whole entry): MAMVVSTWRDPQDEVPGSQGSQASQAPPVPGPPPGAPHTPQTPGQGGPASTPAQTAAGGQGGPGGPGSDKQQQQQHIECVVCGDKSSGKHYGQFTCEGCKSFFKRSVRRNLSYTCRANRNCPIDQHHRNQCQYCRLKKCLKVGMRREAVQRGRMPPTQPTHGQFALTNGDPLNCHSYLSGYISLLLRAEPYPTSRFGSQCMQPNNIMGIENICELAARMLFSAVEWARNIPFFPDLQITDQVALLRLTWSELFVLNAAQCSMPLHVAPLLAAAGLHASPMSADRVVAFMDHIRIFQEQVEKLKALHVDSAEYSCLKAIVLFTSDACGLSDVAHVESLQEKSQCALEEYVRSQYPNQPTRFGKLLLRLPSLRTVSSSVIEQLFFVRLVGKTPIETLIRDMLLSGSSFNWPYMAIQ
# [13] = Luminescence Cell-Based Dose Retest to Confirm Inhibitors of Cancer Stem Cells. [Related pubchem assays (depositor defined):AID2717, AID2721]; assay type: functional; conditions: Homo sapiens
# [14] = target: T5, Microphthalmia-associated transcription factor (Homo sapiens, UniProt O75030); test: TRPM1 promoter luciferase signal decrease, dose response, MITF inhibitor project, cell-based, SK-MEL-5, cherry-picked, set 3 (AID 493073); assay type: functional
# T5 sequence (O75030 whole entry): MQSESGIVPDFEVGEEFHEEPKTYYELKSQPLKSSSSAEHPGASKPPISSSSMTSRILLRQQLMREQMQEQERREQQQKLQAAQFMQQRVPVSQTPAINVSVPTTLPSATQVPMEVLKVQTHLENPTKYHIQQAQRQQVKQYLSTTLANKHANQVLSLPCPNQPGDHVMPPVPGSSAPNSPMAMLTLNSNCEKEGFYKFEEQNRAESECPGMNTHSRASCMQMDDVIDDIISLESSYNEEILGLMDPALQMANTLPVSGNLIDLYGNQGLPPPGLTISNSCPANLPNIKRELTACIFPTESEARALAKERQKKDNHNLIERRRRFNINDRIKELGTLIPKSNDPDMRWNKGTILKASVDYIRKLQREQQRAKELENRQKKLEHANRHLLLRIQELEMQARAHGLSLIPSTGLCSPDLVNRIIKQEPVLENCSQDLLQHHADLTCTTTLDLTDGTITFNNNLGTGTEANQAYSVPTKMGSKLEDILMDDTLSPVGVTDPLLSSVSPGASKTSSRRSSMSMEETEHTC
# Vero = test: cells; assay type: functional; conditions: Chlorocebus sabaeus
# [15] = inhibitors of intracellular T. cruzi replication, confirmation, NIH3T3 host cells, beta-gal luminescence (AID 2044); assay type: functional, cell-based;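 further: intracellular parasites grown in NIH/3T3 mouse fibroblasts as host cells; luminescent beta-galactosidase reporter signal from transgenic T. cruzi replicating inside host cells; inhibitors lower the luminescence signal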
# [16] = cytotoxicity toward NIH3T3 fibroblasts, dose response, counter-screen, cell-based, ATP luminescence, mouse fibroblasts (AID 2010); assay type: functional;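 further: cells exposed to compound for about 90 hours before reading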
# [17] = system: Streptococcus sp. 'group A'; test: growth inhibition of control SK(-) GAS strain, dose response, counter-screen for streptokinase expression inhibitor project, luminescence, kanamycin, BacTiterGlo, confirmation (AID 1900); assay type: functional, organism-based
# Streptococcus = test: Group A Streptococcus viability loss, dose response, counter-screen for streptokinase expression inhibitor project, luminescence, BacTiterGlo (AID 1915); assay type: functional, organism-based;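 further: potency for reduction of bacterial viability or growth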
# Cytochrome P450 2D6 = Cytochrome P450 2D6 (Homo sapiens, UniProt P10635);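 further: CYP2D6 member of a cytochrome P450 panel assay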
# Cytochrome P450 2C9, sequence (P11712 whole entry): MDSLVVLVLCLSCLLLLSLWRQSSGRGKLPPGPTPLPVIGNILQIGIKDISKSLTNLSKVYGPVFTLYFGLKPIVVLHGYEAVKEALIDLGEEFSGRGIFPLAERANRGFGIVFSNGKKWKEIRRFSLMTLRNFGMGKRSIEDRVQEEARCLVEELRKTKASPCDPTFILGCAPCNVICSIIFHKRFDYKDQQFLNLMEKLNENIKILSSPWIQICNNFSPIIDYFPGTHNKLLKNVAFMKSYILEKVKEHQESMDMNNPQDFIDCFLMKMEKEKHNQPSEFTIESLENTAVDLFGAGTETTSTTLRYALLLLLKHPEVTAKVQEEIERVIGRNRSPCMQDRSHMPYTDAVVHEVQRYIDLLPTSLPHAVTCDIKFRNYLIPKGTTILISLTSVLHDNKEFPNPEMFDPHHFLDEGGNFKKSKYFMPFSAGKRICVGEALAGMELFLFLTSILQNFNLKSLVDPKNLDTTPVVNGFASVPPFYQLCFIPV
# Peroxisome proliferator-activated receptor gamma/Nuclear receptor coactivator 3, sequence (P37231 whole entry): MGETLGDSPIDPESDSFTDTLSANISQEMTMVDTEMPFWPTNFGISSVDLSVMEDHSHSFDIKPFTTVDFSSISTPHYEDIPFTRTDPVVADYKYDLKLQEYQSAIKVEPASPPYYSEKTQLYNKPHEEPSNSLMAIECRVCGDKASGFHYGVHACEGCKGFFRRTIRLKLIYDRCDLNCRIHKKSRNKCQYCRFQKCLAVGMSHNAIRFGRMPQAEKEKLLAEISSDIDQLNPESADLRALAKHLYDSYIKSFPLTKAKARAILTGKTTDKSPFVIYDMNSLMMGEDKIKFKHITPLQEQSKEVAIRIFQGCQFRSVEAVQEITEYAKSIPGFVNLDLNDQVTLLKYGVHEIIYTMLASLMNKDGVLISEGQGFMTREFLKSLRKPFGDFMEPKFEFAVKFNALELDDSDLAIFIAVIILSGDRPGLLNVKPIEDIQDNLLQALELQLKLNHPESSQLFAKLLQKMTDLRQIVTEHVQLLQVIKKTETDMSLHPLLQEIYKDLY
# Peroxisome proliferator-activated receptor gamma/Nuclear receptor coactivator 3, sequence (Q9Y6Q9 whole entry, further chain): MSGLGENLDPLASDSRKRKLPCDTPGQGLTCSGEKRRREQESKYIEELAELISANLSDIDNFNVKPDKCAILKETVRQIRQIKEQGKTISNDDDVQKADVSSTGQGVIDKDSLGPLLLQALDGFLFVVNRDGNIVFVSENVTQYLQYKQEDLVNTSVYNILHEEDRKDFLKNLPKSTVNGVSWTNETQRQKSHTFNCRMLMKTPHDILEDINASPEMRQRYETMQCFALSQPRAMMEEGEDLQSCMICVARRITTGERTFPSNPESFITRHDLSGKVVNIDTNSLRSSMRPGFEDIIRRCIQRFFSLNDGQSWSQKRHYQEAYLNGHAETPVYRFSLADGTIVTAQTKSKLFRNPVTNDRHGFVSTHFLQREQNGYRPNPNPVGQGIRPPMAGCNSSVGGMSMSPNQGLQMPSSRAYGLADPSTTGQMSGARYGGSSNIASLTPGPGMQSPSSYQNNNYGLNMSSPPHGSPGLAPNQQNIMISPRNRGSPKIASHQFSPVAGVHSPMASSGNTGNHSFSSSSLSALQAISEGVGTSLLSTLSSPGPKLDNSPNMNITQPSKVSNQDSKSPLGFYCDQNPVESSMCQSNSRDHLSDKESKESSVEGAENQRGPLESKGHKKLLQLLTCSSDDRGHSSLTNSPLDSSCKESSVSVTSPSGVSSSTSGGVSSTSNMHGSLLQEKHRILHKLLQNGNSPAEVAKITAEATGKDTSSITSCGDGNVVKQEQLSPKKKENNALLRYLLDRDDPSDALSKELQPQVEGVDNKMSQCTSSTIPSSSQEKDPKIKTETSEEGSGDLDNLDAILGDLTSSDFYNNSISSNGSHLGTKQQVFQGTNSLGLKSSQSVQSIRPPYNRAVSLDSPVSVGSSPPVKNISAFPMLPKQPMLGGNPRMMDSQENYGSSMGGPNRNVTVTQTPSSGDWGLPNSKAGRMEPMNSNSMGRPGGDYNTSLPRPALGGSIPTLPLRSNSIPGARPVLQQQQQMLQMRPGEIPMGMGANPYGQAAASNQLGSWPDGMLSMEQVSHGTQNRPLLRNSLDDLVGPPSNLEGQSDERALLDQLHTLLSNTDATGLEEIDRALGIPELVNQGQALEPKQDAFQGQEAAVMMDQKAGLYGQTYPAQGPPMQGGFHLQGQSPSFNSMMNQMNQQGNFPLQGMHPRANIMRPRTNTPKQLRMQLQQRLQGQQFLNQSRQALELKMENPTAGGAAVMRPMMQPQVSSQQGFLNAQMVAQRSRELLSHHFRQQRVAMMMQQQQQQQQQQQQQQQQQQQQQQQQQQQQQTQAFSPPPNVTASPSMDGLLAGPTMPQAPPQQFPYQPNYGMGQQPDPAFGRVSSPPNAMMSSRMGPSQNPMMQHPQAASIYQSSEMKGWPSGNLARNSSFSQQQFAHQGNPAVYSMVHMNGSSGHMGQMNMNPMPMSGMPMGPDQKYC
# Peroxisome proliferator-activated receptor gamma/Nuclear receptor coactivator 1, sequence (P37231 whole entry): as the sequence (P37231 whole entry) above
# Peroxisome proliferator-activated receptor gamma/Nuclear receptor coactivator 1, sequence (Q15788 whole entry, further chain): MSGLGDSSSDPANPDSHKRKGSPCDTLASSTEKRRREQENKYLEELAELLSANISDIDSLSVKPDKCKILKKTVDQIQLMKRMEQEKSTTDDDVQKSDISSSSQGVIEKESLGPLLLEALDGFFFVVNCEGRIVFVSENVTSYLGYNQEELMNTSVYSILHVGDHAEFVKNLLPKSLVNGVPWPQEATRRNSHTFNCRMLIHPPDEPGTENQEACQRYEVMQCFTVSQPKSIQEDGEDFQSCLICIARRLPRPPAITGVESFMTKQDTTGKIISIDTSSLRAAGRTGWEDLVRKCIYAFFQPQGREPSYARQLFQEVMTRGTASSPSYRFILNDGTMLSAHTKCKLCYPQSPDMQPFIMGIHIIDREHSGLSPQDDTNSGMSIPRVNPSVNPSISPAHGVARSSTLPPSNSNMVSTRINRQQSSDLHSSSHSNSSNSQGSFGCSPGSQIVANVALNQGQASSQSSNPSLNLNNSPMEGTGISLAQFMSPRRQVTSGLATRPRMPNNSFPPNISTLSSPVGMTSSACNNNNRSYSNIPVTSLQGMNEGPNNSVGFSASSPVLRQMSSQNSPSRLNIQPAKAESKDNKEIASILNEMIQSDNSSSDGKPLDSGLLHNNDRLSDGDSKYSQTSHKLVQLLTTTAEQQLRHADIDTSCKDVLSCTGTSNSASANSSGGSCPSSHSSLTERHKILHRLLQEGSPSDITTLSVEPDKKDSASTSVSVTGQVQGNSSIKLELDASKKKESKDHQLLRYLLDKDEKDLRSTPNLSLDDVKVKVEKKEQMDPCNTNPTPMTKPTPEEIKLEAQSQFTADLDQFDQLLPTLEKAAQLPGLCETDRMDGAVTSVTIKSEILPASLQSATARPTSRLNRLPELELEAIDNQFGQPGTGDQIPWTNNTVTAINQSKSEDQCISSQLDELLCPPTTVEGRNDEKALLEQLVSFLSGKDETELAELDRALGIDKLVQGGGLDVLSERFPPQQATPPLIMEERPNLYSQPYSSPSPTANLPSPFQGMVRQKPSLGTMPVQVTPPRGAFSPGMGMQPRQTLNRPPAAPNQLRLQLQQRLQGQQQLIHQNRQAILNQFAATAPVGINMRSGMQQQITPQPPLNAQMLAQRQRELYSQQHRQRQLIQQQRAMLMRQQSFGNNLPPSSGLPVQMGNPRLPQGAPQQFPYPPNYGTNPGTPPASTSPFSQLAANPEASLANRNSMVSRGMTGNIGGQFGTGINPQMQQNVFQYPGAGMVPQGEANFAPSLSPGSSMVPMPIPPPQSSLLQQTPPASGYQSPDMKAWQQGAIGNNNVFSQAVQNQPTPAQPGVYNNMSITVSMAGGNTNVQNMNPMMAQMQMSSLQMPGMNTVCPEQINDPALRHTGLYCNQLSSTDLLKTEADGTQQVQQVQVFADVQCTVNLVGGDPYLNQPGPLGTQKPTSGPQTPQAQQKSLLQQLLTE
# ATP-dependent molecular chaperone HSP82, sequence (C4YTQ8 whole entry): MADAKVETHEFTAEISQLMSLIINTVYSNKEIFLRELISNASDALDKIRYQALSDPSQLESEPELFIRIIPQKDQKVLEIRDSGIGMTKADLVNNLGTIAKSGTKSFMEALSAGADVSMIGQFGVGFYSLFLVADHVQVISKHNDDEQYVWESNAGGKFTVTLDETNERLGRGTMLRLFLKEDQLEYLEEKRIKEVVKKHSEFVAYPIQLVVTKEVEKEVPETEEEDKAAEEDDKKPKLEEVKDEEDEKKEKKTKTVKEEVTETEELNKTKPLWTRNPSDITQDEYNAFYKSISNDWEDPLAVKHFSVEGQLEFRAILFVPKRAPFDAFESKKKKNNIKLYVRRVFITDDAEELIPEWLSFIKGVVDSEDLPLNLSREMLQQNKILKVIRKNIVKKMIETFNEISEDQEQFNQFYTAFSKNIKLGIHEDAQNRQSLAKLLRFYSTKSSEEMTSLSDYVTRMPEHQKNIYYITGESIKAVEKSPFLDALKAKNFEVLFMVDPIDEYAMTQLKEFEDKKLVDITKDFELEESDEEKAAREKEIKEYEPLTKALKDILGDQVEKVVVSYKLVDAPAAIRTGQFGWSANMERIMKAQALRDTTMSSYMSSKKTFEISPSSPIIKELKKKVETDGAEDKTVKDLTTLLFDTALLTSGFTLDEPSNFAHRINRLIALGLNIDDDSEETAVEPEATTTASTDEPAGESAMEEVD
compound,measurement,setting,value
Cc1ccccc1C(=O)c1c[nH]c(C(=O)NCc2ccco2)c1,AC50,HEK293,11.2 µM (active)
CCn1c(=O)cc(SCC(=O)N2CCN(C)CC2)c2ccccc21,EC50,[1],> 79.4 µM (inactive)
same,EC50,[2],> 79.4 µM (not active)
same,EC50,[3],> 79.4 µM (not active)
same,IC50,[4],> 80 µM (inactive)
CCO/C(=C/c1sc2ccc(OC)cc2[n+]1CCCS(=O)(=O)[O-])CC,AC50,[5],9.02 µM (active)
Cn1c(=O)cc(SCC(=O)Nc2cccnc2)c2ccccc21,EC50,[1],> 79.4 µM (inactive)
same,EC50,[2],> 79.4 µM (not active)
same,EC50,[3],> 79.4 µM (not active)
CN(CCCNC(=O)C1CCN(S(=O)(=O)c2cccc3nsnc23)CC1)Cc1ccccc1,AC50,Cytochrome P450 2C19,39.8 µM (inconclusive)
same,AC50,Cytochrome P450 3A4,3.16 µM (inconclusive)
same,AC50,Cytochrome P450 2C9,inconclusive
CCCN(CCC)CCc1c[nH]c2ccc(C(N)=O)cc12,AC50,Cytochrome P450 1A2,15.8 µM (inconclusive)
same,AC50,Cytochrome P450 2C9,inconclusive
COCCn1c(C)cc(C(=O)COC(=O)C23CC4CC(CC(O)(C4)C2)C3)c1C,AC50,HEK293,7.37 µM (active)
CCOC(=O)c1c(-c2ccccc2Cl)cn2ccccc12,EC50,[6],> 160 µM (inactive)
same,EC50,[7],3.75 µM (active)
same,EC50,[8],> 180 µM (inactive)
same,EC50,[9],17.4 µM (active)
COc1cc(/C=C2/SC(=O)NC2=O)ccc1Oc1ccc([N+](=O)[O-])cc1[N+](=O)[O-],IC50,[10],7.36 µM (not active)
same,AC50,[11],156 nM (active)
same,AC50,[5],0.992 µM (active)
Cc1sc2ncnc(NCC3COc4ccccc4O3)c2c1C (configuration not stated),AC50,HEK293,35.9 µM (active)
same,AC50,INS1,1.68 µM (active)
same,IC50,Protein Wnt-3a,441 nM (active)
same,IC50,[12],3.38 µM (active)
O=C(NCc1ccco1)c1nc(O)c2nnn(Cc3ccccc3Cl)c2n1,AC50,[13],2.4 µM (active)
same,AC50,[14],14.4 µM (active)
same,CC50,Vero,18.9 µM (active)
Nc1ccccc1-c1nnc(S)s1,EC50,[1],14.9 µM (inactive)
same,EC50,[2],> 79.4 µM (not active)
same,EC50,[3],15.6 µM (not active)
C[n+]1c2n(c3ccccc31)N=C(c1ccc(-c3ccccc3)cc1)CS2,EC50,[6],> 160 µM (inactive)
same,EC50,[7],0.452 µM (active)
same,EC50,[15],376 nM (active)
same,EC50,[8],> 180 µM (inactive)
same,EC50,[16],9.85 µM (active)
same,AC50,INS1,1.32 µM (active)
same,EC50,[9],> 160 µM (inactive)
same,IC50,Protein Wnt-3a,736 nM (active)
same,IC50,[12],5.03 µM (active)
CC(=O)N1N=C(c2ccc(Br)cc2)CC1c1cn(C)c2ccccc12 (configuration not stated),EC50,[1],18.5 µM (inactive)
same,EC50,[2],> 79.4 µM (not active)
same,EC50,[3],18.3 µM (not active)
COc1ccc(/C=C2/SC(=S)N(CCCC(=O)N3CCN(C)CC3)C2=O)cc1,CC50,Vero,> 25 µM (active)
Cc1ccc(C)c(OCC(=O)OCc2csc(CC(=O)Nc3ccccc3C)n2)c1,CC50,Vero,> 25 µM (active)
Cc1cc(N/N=C\c2ccc(Br)cc2)nc(-n2nc(C)cc2C)n1,EC50,[17],1.01 µM (active)
same,EC50,Streptococcus,3.74 µM (active)
same,AC50,HEK293,3.83 µM (active)
same,AC50,INS1,2.43 µM (active)
CCCCN1CCC(CCC(=O)c2cc(Cl)c(N)cc2OC)CC1,AC50,Cytochrome P450 2D6,12.6 µM (inconclusive)
same,AC50,Cytochrome P450 2C9,inconclusive

# Reference: ChEMBL document CHEMBL1201862, “PubChem BioAssay data set” (2004)
